Source: US10293014B2, “Immune stimulating composition comprising an extract of Aronia sp. in combination with selenium and/or zinc” (Ursapharm Arzneimittel GmbH, priority 2009, dated 2019)

Test system: macrophages of the mouse leukaemic monocyte macrophage cell line RAW 264.7
Assay: Chemiluminescence assay of macrophage activity (lucigenine, zymosan)
Assay type: cell-based
Conditions: selenium alone, RAW 264.7, FIG. 3
Experimental: Cells: Cell line (RAW 264.7, murine macrophages) was purchased from the America Type Culture Collection and cultivated as recommended.
Chemiluminescence Assay: Lucigenine (Sigma Chemicals Co.) was dissolved in Hank's Balanced Salt Solution (HBSS; Gibco Co.) at a concentration of 2×10^−3 M. This stock solution was further diluted in HBSS prior to use. 1 ml cells (5×10^6 cells/ml) were incubated with 0.1 ml solution of Aronia extract and Aronia extract together with sodium selenite (dosis kinetics for each component and the combinations as documented in the figures). All these constituents were kept in an incubator (37° C., 5% CO2) for 30 min, then centrifuged at 1200 U/min for 5 min and resuspended in minimal essential medium (MEM, Gibco Co.).
The reaction mixture consisted of a suspension (0.25 ml) at a concentration of 5×10^6 PMNL (polymorphonuclear leucocytes)/ml respectively monocytes/macrophages, 50 μl zymosan, and 0.45 ml medium containing 2×10^−6 M lucigenine. The reaction mixture was kept at 37° C. before chemoluminescence measurements were performed with a Luminometer (Luminoskan 1251, Labsystems) according to manufacturer's instructions (User's Manual 1995).

For `O=[Se]([O-])[O-].[Na+].[Na+]` [selenium, sodium selenite], the “concentrations that decrease macrophage activity” value was over 8 µg/mL.
